# Source: patent publication US8022051B2, “Composition for protection and improvement of skin, or reinforcing skin barrier function comprising phosphatidylserine” (Doosan Corporation, priority 2004, dated 2011)
# Assays:
# [1] = system: TPA-induced ear inflammation in CD-1 mouse; assay: Alleviation of skin damage (inflammatory response) due to TPA in mouse ear; type: in vivo; conditions: TPA 0.03%; applied 30 μl per cm^2 at 45 minutes and 4 hours after induction; phosphatidylserine 0.5%, clofibrate 1 mM, Wy14643 1 mM; FIG. 2
# Procedure: In order to examine a skin damage (inflammatory response)-alleviating effect of the phosphatidylserine of the invention, which damage results from skin inflammation-inducing material, a following experiment was performed in accordance with a method used by Sheu et. al. (The Journal of Investigate Dermatology, 118, pp 94-101, 2002).
# First, CD-1 mouse (male & female, 6-8 weeks, Charles River, US) was used as an experimental object. TPA (12-0-tetradecanoylphorbol-13-acetate) 0.03% (wt./vol.; in acetone) solution 10 μl, which was skin inflammation-inducing material, was treated to inner and outer parts of both ears of the experimental animal. The ear was thickened due to TPA and there occurred an inflammatory response. Then, clofibrate (1 mM) and Wy14643 (1 mM) as already-known positive control group, which are agonists of PPAR-a, and the 0.5% phosphatidylserine containing aqueous solution used as the Example 1 as an experimental material were applied to both ears in an amount of 30 μl per cm^2 at times of 45 minutes and 4 hours after the inflammation was induced. After that, the treated parts of the ears were subject to a biopsy, and the biopsy parts were fixed to 4% formaldehyde and then subject to Hematoxylene & Eosin (E&H) staining. The tissue slide stained with H&E was magnified to 100 folds to check the inflammation alleviation.
# [2] = system: skin keratinocyte cell line (HaCaT) and normal human keratinocytes; assay: Reduction of inflammatory response induced by ultraviolet irradiation in skin keratinocytes (ELISA of TNF-a, IL-6, IL-1alpha); type: cell-based; conditions: 25 mJ/cm^2 UVB; phosphatidylserine 20 and 40 μM, WY-14643 200 μM; 24 hours; FIG. 3
# Procedure: In order to examine an inflammatory response-reducing effect of the phosphatidylserine of the invention in the skin keratinocyte, which response results from the ultraviolet irradiation, a following experiment was performed in accordance with a method disclosed in the literature (Stefan et. al., The Journal of Investigate Dermatology, 117, pp 1430-1436, 2001).
# First, the skin keratinocyte cell line (HaCaT, a gift from Yonsei univeritym, Korea) was seeded to a 35 mm^2 of cell culture dish in an amount of 3×10^5 cells/dish and then cultured for a day. Next day, the culture medium was removed and the cell was washed with 1× phosphate-buffered saline (PBS), 700 μl of 1×PBS was added to each of the dishes, it was irradiated 25 mJ/cm^2 UVB and then PBS was removed. […] Next day, the culture medium was collected and then amounts of TNF-a and IL-6 which have been known as inflammatory cytokines were measured with an enzyme-linked immunosorbent assay (ELISA) method. In addition, in order to check that there occurred a similar inflammatory response reducing effect also in the normal human skin keratinocyte, an experiment was performed in the above-mentioned manner using normal human keratinocytes (a gift from Dong-guk University) instead of the HaCaT cell line and then an amount of IL-1alpha secreted to the culture medium was measured with the ELISA.
# [3] = system: skin keratinocyte cell line (HaCaT); assay: Protection of skin keratinocytes from ultraviolet injury (MTT assay); type: cell-based, human; conditions: 25 mJ/cm^2 UVB; phosphatidylserine 20 and 40 μM, WY-14643 200 μM; 24 hours; FIG. 4
# [4] = system: skin; conditions: applied to the skin; Sheu et al., J Invest Dermatol 118, 94-101, 2002; cited from earlier work
# [5] = system: skin keratinocytes (HaCaT); assay: Protection from ROS (hydrogen peroxide) in skin keratinocytes (MTT assay); type: cell-based; conditions: phosphatidylserine 25 μM, vitamin C 100 μM, vitamin E 100 μM, 24 hours; then 1 mM H2O2 about 1-1.5 hours; FIG. 8
# Procedure: In order to measure an effect of protecting the skin from the ROS in the keratinocyte by the phosphatidylserine of the invention, a following experiment was performed.
# First, the skin keratinocytes (HaCaT) were seeded to the 24-well plate in an amount of 5×10^4 cells/well. Next day, it was treated with 25 μM phosphatidylserine aqueous solution (Doosan Biotech, Korea) (phosphatidylserine-treated group), 100 μM vitamin C (ascorbic acid-treated group) and 100 μM vitamin E (a-tocopherol-treated group) as the positive control group and then cultured for 24 hours. Next day, it was treated with 1 mM hydrogen peroxide (H2O2) and then cultured for about 1˜1.5 hours. Then, a cell viability was examined with the MTT assay.
# [6] = system: normal human keratinocytes; assay: Differentiation promoting effect in skin keratinocytes (western blot of involucrin and transglutaminase); type: cell-based; conditions: phosphatidylserine 20 and 40 μM, calcium 1.2 mM, clofibrate 200 and 400 μM; 24 hours; FIG. 5
# Procedure: In order to examine a differentiation promoting effect in the skin keratinocytes by the phosphatidylserine of the invention, a following experiment was performed. First, the normal human keratinocytes (a gift from Dong-guk University) cultured in the KSFM (Keratinocyte-SFM; Gibco BRL/Life Technologies, USA) were seeded to the 35 mm^2 cell culture dish in an amount of 1.5×10^5 cells/dish and then cultured for a day. Next day, the culture medium was removed and a new culture medium containing 20 and 40 μM of phosphatidylserine aqueous solution, 1.2 mM calcium aqueous solution and 200 and 400 μM of clofibrate (Sigma, USA) added thereto was added and cultured for 24 hours. Next day, in order to make sure of a differentiation of the keratinocyte, a morphology change of the cell was checked with a phase contrast microscope (Nikon, Japan) and a photograph was taken with a digital camera attached to the microscope. In addition, a western blot was performed to check the protein expression amount of involucrin and transglutaminase, which have been known as a differentiation-marker proteins of the keratinocyte peculiar to the keratin. 500 μl of a lysis buffer having 2% sodium dodecyl sulfate (SDS) added thereto wad added and the cells were collected with a cell scrapper, so that cell lysate only was obtained. […]
smiles,measurement,setting,value
"Cc1cccc(Nc2cc(Cl)nc(SCC(=O)O)n2)c1C [WY14643, reference compound]",inflammation alleviation (H&E stained ear tissue),[1],inflammation was alleviated
same,"inflammatory response increased due to the ultraviolet irradiation (TNF-a, IL-6, IL-1alpha amounts)",[2],considerably alleviated
same,"protection of skin keratinocytes from ultraviolet injury (cell survival, MTT)",[3],protected the skin keratinocytes from the ultraviolet injury
same,inflammation due to the skin stimulating material,[4],decreased
"Cc1c(C)c2c(c(C)c1O)CC[C@@](C)(CCC[C@H](C)CCC[C@H](C)CCCC(C)C)O2 [a-tocopherol, reference compound]","protection effect from reactive oxygen species (cell viability, MTT)",[5],exhibited the protection effect
"O=C1O[C@H]([C@@H](O)CO)C(O)=C1O [ascorbic acid, reference compound]","protection effect from reactive oxygen species (cell viability, MTT)",[5],exhibited the protection effect
"[Ca+2] [calcium, reference compound]",protein expression of involucrin and transglutaminase,[6],caused the expressions of the two proteins to be increased
